Source: patent US20230265116A1, “DEGRADATION OF (EGFR) BY CONJUGATION OF EGFR INHIBITORS WITH E3 LIGASE LIGAND AND METHODS OF USE” (BEIGENE, LTD., priority 2020, published 2023)
Read-outs that look alike come from different tables or passages of the source.

Assays:
Format in all cases: cell-based
[1] = biological target: T1, EGFR L858R/C797S (BaF3 LC cells) (Homo sapiens, UniProt P00533, C797S/L858R); assay: EGFR degradation HTRF assay, BaF3 LC cells; conditions: BaF3 LC, 16h treatment; for DC50: read-out: BaF3 LC DC50; for Dmax: maximum percentage of degradation, read-out: BaF3 LC Dmax (%)
T1 construct: expressed in transfected cells; host or cells: BaF3
T1 sequence (P00533 25-1210 C797S/L858R): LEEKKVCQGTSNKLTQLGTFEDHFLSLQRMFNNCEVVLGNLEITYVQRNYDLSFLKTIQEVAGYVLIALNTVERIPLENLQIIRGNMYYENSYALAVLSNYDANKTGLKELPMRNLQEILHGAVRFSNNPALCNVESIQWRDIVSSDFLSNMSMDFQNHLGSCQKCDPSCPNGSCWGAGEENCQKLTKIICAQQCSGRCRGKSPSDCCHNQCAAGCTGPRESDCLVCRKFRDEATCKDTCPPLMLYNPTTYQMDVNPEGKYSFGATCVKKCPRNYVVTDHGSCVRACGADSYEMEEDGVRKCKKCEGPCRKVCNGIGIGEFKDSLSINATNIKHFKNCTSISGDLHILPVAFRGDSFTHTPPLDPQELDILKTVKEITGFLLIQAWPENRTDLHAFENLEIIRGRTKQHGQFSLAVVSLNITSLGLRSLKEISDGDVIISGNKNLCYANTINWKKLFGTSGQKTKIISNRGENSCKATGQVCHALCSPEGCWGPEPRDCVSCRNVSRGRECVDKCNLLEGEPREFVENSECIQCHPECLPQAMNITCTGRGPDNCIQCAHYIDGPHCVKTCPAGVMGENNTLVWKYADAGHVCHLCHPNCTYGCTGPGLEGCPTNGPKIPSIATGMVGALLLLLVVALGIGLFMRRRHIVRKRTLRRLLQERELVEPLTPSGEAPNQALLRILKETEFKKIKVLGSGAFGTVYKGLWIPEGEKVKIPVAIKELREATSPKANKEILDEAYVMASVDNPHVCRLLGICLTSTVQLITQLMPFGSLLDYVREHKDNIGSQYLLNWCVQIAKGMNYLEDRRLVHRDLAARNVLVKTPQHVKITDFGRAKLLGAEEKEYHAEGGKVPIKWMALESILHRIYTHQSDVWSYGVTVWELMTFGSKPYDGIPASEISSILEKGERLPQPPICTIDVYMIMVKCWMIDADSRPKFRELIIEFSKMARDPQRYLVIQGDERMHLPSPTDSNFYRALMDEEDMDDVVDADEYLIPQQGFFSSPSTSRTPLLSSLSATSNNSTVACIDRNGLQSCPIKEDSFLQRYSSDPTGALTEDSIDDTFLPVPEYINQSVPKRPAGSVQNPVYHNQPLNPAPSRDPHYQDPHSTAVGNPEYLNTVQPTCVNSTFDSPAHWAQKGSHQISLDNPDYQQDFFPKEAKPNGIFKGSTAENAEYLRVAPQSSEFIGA

[2] = system: EGFR Del19/C797S (H1975-clone #23); assay: EGFR degradation HTRF assay, H1975-clone #23 DC cells; conditions: for H1975 #23 DC Dmax (%): maximum percentage of degradation
How it was run: (§1)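 Lentiviral Del19/T790M/C797S (clone #28) or Del19/C797S (clone #23) EGFR expressed in H1975 with endogenous EGFR knocked out. Cells treated 16 h, 37 °C, 8 doses, 5-fold from 10 uM top, 0.2% DMSO; EGFR read by HTRF after lysis. Degradation % vs DMSO control; DC50, Dmax from four-parameter fit.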

[3] = system: EGFR Del19/T790M/C797S (H1975-clone #28); assay: EGFR degradation HTRF assay, H1975-clone #28 DTC cells
How it was run: as §1

[4] = biological target: T2, EGFR L858R/T790M/C797S (BaF3-LTC cells) (Homo sapiens, UniProt P00533, C797S/L858R/T790M); assay: EGFR degradation HTRF assay, BaF3-LTC cells; conditions: BaF3-LTC cells; for DC50: EGFR degradation, IC50 (DC50) from curve fit, read-out: DC50(nM) BaF3-LTC; for Dmax: maximum percentage of inhibition (degradation), read-out: Dmax (%) BaF3-LTC
T2 construct: expressed in transfected cells; host or cells: BaF3
T2 sequence (P00533 25-1210 T790M/C797S/L858R): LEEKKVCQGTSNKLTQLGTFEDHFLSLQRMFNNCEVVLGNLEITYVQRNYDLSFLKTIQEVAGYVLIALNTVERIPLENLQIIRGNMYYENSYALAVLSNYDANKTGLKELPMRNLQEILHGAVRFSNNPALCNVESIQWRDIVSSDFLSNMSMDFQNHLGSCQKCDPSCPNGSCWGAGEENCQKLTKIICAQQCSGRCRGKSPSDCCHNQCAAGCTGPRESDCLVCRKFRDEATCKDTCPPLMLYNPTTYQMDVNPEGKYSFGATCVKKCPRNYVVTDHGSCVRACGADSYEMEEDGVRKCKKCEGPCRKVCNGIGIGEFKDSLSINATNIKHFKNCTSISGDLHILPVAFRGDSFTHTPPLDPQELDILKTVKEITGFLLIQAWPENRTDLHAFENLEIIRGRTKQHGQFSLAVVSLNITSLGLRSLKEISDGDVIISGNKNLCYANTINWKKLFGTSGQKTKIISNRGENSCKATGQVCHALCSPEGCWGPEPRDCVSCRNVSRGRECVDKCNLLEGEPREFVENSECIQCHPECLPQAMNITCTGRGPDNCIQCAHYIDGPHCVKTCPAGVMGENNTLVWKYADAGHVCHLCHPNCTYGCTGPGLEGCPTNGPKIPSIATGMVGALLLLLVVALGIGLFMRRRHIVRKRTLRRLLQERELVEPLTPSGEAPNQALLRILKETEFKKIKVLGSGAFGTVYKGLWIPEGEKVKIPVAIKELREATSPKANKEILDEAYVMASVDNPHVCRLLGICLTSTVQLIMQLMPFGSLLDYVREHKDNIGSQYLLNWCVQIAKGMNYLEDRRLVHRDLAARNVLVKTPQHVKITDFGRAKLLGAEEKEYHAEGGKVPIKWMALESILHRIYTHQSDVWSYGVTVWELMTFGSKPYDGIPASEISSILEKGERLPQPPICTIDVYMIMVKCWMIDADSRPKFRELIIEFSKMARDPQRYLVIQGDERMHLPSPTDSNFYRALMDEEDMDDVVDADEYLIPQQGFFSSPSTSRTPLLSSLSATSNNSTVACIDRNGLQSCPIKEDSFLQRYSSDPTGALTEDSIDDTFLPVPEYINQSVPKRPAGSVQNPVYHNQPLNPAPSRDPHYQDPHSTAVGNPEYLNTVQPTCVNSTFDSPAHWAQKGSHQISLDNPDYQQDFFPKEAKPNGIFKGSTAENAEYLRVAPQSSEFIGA
How it was run: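 Cells treated 16 h at 37 °C, 5% CO2 in medium with 0.2% DMSO; top final concentration 10 uM, 5-fold dilution, 8 doses. Lysates read by HTRF (665/620 nm); degradation % versus DMSO high control, DC50 from four-parameter fit, Dmax as maximal degradation.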

[5] = H1975 #23 DC, 16h treatment, read-out: H1975 #23 DC DC50
[6] = H1975 # 28 DTC cells; EGFR degradation, IC50 (DC50) from curve fit; read-out: DC50(nM) H1975 # 28 DTC
[7] = H1975 # 28 DTC cells; maximum percentage of inhibition (degradation)

Row | SMILES | DC50 [1] [nM] | DC50 [2, 5] [nM] | DC50 [3, 6] [nM] | DC50 [4] [nM] | Dmax [1] [%] | Dmax [4] [%] | H1975 #23 DC Dmax (%) ([2]; 16h treatment) | Dmax (%) H1975 # 28 DTC [3, 7] [%] | DC50 ([2]; read-out: H1975 #23 DC DC50, 16h treatment) [nM] | DC50 ([3]; read-out: DC50(nM) H1975 # 28 DTC; H1975 # 28 DTC cells; EGFR degradation, IC50 (DC50) from curve fit) [nM]
1 | CCOc1cc(N2CCC(N3CCN(CCc4cc(F)c([C@H]5CCC(=O)NC5=O)c(F)c4)CC3)CC2)c(CC)cc1Nc1ncc(Br)c(Nc2cc(F)c3nc(CC)ccc3c2P(C)(C)=O)n1 [Example 486, (R)-3-(4-(2-(4-(1-(4-((5-bromo-4-((5-(dimethylphosphoryl)-2-ethyl-8-fluoroquinolin-6-yl)amino)pyrimidin-2-yl)amino)-5-ethoxy-2-ethylphenyl)piperidin-4-yl)piperazin-1-yl)ethyl)-2,6-difluorophenyl)piperidine-2,6-dione] | 16.6 | 4.73 | 0.802 | 5.83 | – | – | 80.02 | 85.73 | – | –
2 | CCc1cc(Nc2ncc(Br)c(Nc3ccc4nc(C)ccc4c3P(C)(C)=O)n2)c(OC)cc1N1CCC(N2CCN(C(=O)[C@H]3CN(c4cc(F)c([C@H]5CCC(=O)NC5=O)c(F)c4)CC3(C)C)CC2)CC1 [Example 487, (R)-3-(4-((R)-4-(4-(1-(4-((5-bromo-4-((5-(dimethylphosphoryl)-2-methylquinolin-6-yl)amino)pyrimidin-2-yl)amino)-2-ethyl-5-methoxyphenyl)piperidin-4-yl)piperazine-1-carbonyl)-3,3-dimethylpyrrolidin-1-yl)-2,6-difluorophenyl)piperidine-2,6-dione] | 10.1 | 4.02 | 2.22 | 5.25 | – | – | 74.41 | 85.45 | – | –
3 | CCc1cc(Nc2ncc(Br)c(Nc3ccc4nc(C)c(F)cc4c3P(C)(C)=O)n2)c(OC)cc1N1CCC(N2CCN(C(=O)[C@@H]3CCN(c4cc(F)c([C@H]5CCC(=O)NC5=O)c(F)c4)C3)CC2)CC1 [Example 488, (R)-3-(4-((R)-3-(4-(1-(4-((5-bromo-4-((5-(dimethylphosphoryl)-3-fluoro-2-methylquinolin-6-yl)amino)pyrimidin-2-yl)amino)-2-ethyl-5-methoxyphenyl)piperidin-4-yl)piperazine-1-carbonyl)pyrrolidin-1-yl)-2,6-difluorophenyl)piperidine-2,6-dione] | 17.9 | 2.23 | 0.97 | 3.52 | – | – | 67.73 | 84.91 | – | –
4 | CCc1cc(Nc2ncc(Br)c(Nc3ccc4nc(C)ccc4c3P(C)(C)=O)n2)c(OC)cc1N1CCC(N2CCN(CCc3ccc4c(c3)oc(=O)n4C3CCC(=O)NC3=O)CC2)CC1 (stereo not drawn) [Example 490, 3-(6-(2-(4-(1-(4-((5-bromo-4-((5-(dimethylphosphoryl)-2-methylquinolin-6-yl)amino)pyrimidin-2-yl)amino)-2-ethyl-5-methoxyphenyl)piperidin-4-yl)piperazin-1-yl)ethyl)-2-oxobenzo[d]oxazol-3(2H)-yl)piperidine-2,6-dione] | 2.41 | 0.974 | 0.2 | 1.3 | 95.7 | 92.8 | 64.67 | 80.5 | – | –
5 | CCOc1cc(N2CCC(N3CCN(CC4CN(c5cccc6c5oc(=O)n6C5CCC(=O)NC5=O)C4)CC3)CC2)c(CC)cc1Nc1ncc(Br)c(Nc2ccc3nc(CC)ccc3c2P(C)(C)=O)n1 (stereo not drawn) [Example 497] | 5.19 | 3.32 | 1.01 | 6.27 | 93.3 | 86.6 | 74.87 | 80.94 | – | –
6 | CCc1ncc2c(P(C)(C)=O)c(Nc3nc(Nc4cc(CC)c(N5CCC(N6CCN(CCc7ccc8c(c7)oc(=O)n8C7CCC(=O)NC7=O)CC6)CC5)cc4OC)ncc3Br)ccc2n1 (stereo not drawn) [Example 499, 3-(6-(2-(4-(1-(4-((5-bromo-4-((5-(dimethylphosphoryl)-2-ethylquinazolin-6-yl)amino)pyrimidin-2-yl)amino)-2-ethyl-5-methoxyphenyl)piperidin-4-yl)piperazin-1-yl)ethyl)-2-oxobenzo[d]oxazol-3(2H)-yl)piperidine-2,6-dione] | 0.955 | – | – | 1.95 | – | – | 61.96 | 77.41 | 0.646 | 0.185

Now from value to compound, other results behind:

Row | DC50 [1] [nM] | DC50 [2, 5] [nM] | DC50 [3, 6] [nM] | DC50 [4] [nM] | Dmax [1] [%] | Dmax [4] [%] | SMILES | H1975 #23 DC Dmax (%) ([2]; 16h treatment) | Dmax (%) H1975 # 28 DTC [3, 7] [%] | DC50 ([2]; read-out: H1975 #23 DC DC50, 16h treatment) [nM] | DC50 ([3]; read-out: DC50(nM) H1975 # 28 DTC; H1975 # 28 DTC cells; EGFR degradation, IC50 (DC50) from curve fit) [nM]
7 | 2.34 | 0.85 | 0.647 | 2.72 | – | – | CCc1ccc2c(P(C)(C)=O)c(Nc3nc(Nc4cc(CC)c(N5CCC(N6CCN(CCc7ccc8c(c7)oc(=O)n8C7CCC(=O)NC7=O)CC6)CC5)cc4OC)ncc3Br)ccc2n1 (stereo not drawn) [Example 491, 3-(6-(2-(4-(1-(4-((5-bromo-4-((5-(dimethylphosphoryl)-2-ethylquinolin-6-yl)amino)pyrimidin-2-yl)amino)-2-ethyl-5-methoxyphenyl)piperidin-4-yl)piperazin-1-yl)ethyl)-2-oxobenzo[d]oxazol-3(2H)-yl)piperidine-2,6-dione] | 58.85 | 78.48 | – | –
8 | 4.28 | 3.07 | 0.605 | 3.39 | 79.5 | 95.5 | CCOc1cc(N2CCC(N3CCN(CCc4cc5oc(=O)n(C6CCC(=O)NC6=O)c5cc4F)CC3)CC2)c(CC)cc1Nc1ncc(Br)c(Nc2ccc3nc(CC)ccc3c2P(C)(C)=O)n1 (stereo not drawn) [Example 492, 3-(6-(2-(4-(1-(4-((5-bromo-4-((5-(dimethylphosphoryl)-2-ethylquinolin-6-yl)amino)pyrimidin-2-yl)amino)-5-ethoxy-2-ethylphenyl)piperidin-4-yl)piperazin-1-yl)ethyl)-5-fluoro-2-oxobenzo[d]oxazol-3(2H)-yl)piperidine-2,6-dione] | 51.44 | 70.88 | – | –
9 | 24.3 | 11.2 | 0.588 | 2.71 | – | – | CCOc1cc(N2CCC(N3CCN(CCc4cccc5c4oc(=O)n5C4CCC(=O)NC4=O)CC3)CC2)c(CC)cc1Nc1ncc(Br)c(Nc2cc(F)c3nc(CC)ccc3c2P(C)(C)=O)n1 (stereo not drawn) [Example 493, 3-(7-(2-(4-(1-(4-((5-bromo-4-((5-(dimethylphosphoryl)-2-ethyl-8-fluoroquinolin-6-yl)amino)pyrimidin-2-yl)amino)-5-ethoxy-2-ethylphenyl)piperidin-4-yl)piperazin-1-yl)ethyl)-2-oxobenzo[d]oxazol-3 (2H)-yl)piperidine-2,6-dione] | 63.11 | 70.43 | – | –
10 | 2.23 | 0.787 | 0.92 | 2.3 | 91.3 | 85.5 | CCOc1cc(N2CCC(N3CCN(CCCc4cc(F)cc5c4oc(=O)n5C4CCC(=O)NC4=O)CC3)CC2)c(CC)cc1Nc1ncc(Br)c(Nc2ccc3nc(CC)ccc3c2P(C)(C)=O)n1 (stereo not drawn) [Example 496, 3-(7-(3-(4-(1-(4-((5-bromo-4-((5-(dimethylphosphoryl)-2-ethylquinolin-6-yl)amino)pyrimidin-2-yl)amino)-5-ethoxy-2-ethylphenyl)piperidin-4-yl)piperazin-1-yl)propyl)-5-fluoro-2-oxobenzo[d]oxazol-3(2H)-yl)piperidine-2,6-dione] | 95.59 | 75.32 | – | –
11 | 0.718 | 0.377 | 2.1 | 7.62 | 92.9 | 91.4 | CCOc1cc(N2CCC(N3CCN(CCc4cc5oc(=O)n(C6CCC(=O)NC6=O)c5cc4F)CC3)CC2)c(CC)cc1Nc1ncc(Br)c(Nc2cc(F)c3nc(CC)ccc3c2P(C)(C)=O)n1 (stereo not drawn) [Example 498, 3-(6-(2-(4-(1-(4-((5-bromo-4-((5-(dimethylphosphoryl)-2-ethyl-8-fluoroquinolin-6-yl)amino)pyrimidin-2-yl)amino)-5-ethoxy-2-ethylphenyl)piperidin-4-yl)piperazin-1-yl)ethyl)-5-fluoro-2-oxobenzo[d]oxazol-3(2H)-yl)piperidine-2,6-dione] | 66.76 | 86.84 | – | –
12 | 1.11 | 1.11 | 0.413 | 2.42 | 92 | 84.8 | CCOc1cc(N2CCC(N3CCN(CCc4ccc5c(c4)oc(=O)n5C4CCC(=O)NC4=O)CC3)CC2)c(CC)cc1Nc1ncc(Br)c(Nc2cc(F)c3nc(CC)ccc3c2P(C)(C)=O)n1 (stereo not drawn) [Example 500, 3-(6-(2-(4-(1-(4-((5-bromo-4-((5-(dimethylphosphoryl)-2-ethyl-8-fluoroquinolin-6-yl)amino)pyrimidin-2-yl)amino)-5-ethoxy-2-ethylphenyl)piperidin-4-yl)piperazin-1-yl)ethyl)-2-oxobenzo[d]oxazol-3(2H)-yl)piperidine-2,6-dione] | 55.74 | 71.9 | – | –
